Test results taken from article PMC10269165 (Antimicrobial Agents and Chemotherapy, 2023).

What was measured:
[1] = test system: MDR isolate of H. contortus, exsheathed L3 larvae; assay: Larval motility assay (LMA), Worminator; assay type: cell-based, Haemonchus contortus
Excerpt: The H. contortus isolates used were TxPh-2011-S (Texas A&M University, USA) and UGA MDR 2020 (University of Georgia Athens, USA). TxPh-2011-S (Texas A&M University, USA) was originally isolated from Pronghorn antelope in West Texas in 2011 and is fully drug susceptible, phenotypically determined by the DrenchRite larval development assay (LDA; Microbial Screening Technologies, Kemps Creek, Australia). To establish this as a laboratory isolate, it was initially passaged in goats at Texas A&M University and then at The University of Georgia using both goats and sheep, and it is currently maintained in lambs at Louisiana State University. A nemabiome assay ([69]) was conducted at the University of Calgary to confirm that the isolate is 100% H. contortus. The UGA MDR 2020 (University of Georgia Athens, USA) isolate is resistant to ivermectin, benzimidazoles, levamisole, and moxidectin, as determined by the DrenchRite LDA. To establish this as a laboratory isolate, feces collected from a sheep farm in Georgia with known history of multiple anthelmintic resistance were cultured. Two donor goats were infected with the larvae recovered, which were morphologically ([70]) identified as 89% H. contortus. A fecal egg count reduction test (FECRT) was then performed in the infected goats. First, a combination treatment with albendazole at 15 mg/kg and ivermectin at 0.4 mg/kg was performed, followed by a treatment with levamisole at 12 mg/kg. Later, and to confirm resistance to moxidectin, another treatment was administered using a dose of 0.4 mg/kg of moxidectin. Posttreatment feces were recovered, coprocultures were established, and L3 larvae were identified as 100% H. contortus. Resistance to all drugs was subsequently confirmed using a DrenchRite assay.
For LMAs, the first phase testing using compounds NSC133100 and NSC177383 was done using the Worminator system in parallel with the LDA. Initial stock solutions of 12.5 mM were prepared for each compound using 100% DMSO as a solvent. Initial stock solutions (25 μL) were then diluted in 475 μL of culture media to yield working stock solutions of 625.00, 156.30, 39.10, 9.80, 2.40, 0.60, 0.20, 0.04, and 0.00 μM in 5% DMSO for each drug. In plate, 200 μL of working stock solutions were then diluted in 800 μL of culture media, yielding concentrations of 125.00, 31.25, 7.81, 1.95, 0.49, 0.12, and 0.00 μM in 1% DMSO. For the second phase of testing, compounds showing anthelmintic activity with the LDA were tested in a second round at higher concentrations than in the first phase of testing. Initial stocks of 50 mM were prepared for compounds NSC133100, NSC177383, NSC145612, and NSC56410 using 100% DMSO as a solvent. Initial stock solutions (25-μL portions) were then diluted in 475 μL of culture media consisting of 65% Lauria-Bertani (LB) (Thermo Fisher Scientific, Branchburg, NJ), 25% NCTC (Sigma-Aldrich), 10% fetal bovine serum (Atlanta Biologicals, Flowery Branch, GA), Pen/Strep (Sigma-Aldrich) at a final concentration of […], and amphotericin B (Sigma-Aldrich) at a final concentration of […]. The working stock solutions yielded concentrations of 2,500.00, 625.00, 156.30, 39.10, 9.80, 2.40, and 0.00 μM in 5% DMSO for each compound. In each well in the plate, 200 μL of working stock solutions were then diluted in 800 μL of culture media, yielding final concentrations of 500.00, 125.00, 31.30, 7.81, 1.95, 0.49, and 0.00 μM in 1% DMSO.
For the motility assays, 24-well plates with inserts were used (Costar, catalog no. 3379; Corning, Inc., Corning, NY). Portions (640 μL) of culture media were added to each well, and approximately 50 exsheathed larvae contained in 160 μL of culture media in each insert. Once pretreatment readings were taken, 160 μL of the drug solution was added to the well, and another 40 μL was added to the insert, reaching the final concentrations described in the protocol above. All concentrations were tested in triplicate. […]

[2] = test system: MDR isolate of H. contortus, exsheathed L3 larvae; assay: Larval motility assay (LMA), Worminator; assay type: cell-based, Haemonchus contortus; remark: listed apart in the source

## CO[C@H]1/C=C/O[C@@]2(C)Oc3c(C)c(O)c4c(O)c(cc(O)c4c3C2=O)NC(=O)/C(C)=C\C=C\[C@H](C)[C@H](O)[C@@H](C)[C@@H](O)[C@@H](C)[C@H](OC(C)=O)[C@@H]1C [NSC133100]
[1]; 15.625 µM, 1 hour
  Percent inhibition of larval motility: 6.1%
[1]; 15.625 µM, 4 hours
  Percent inhibition of larval motility: 6.9%
[1]; 15.625 µM, 24 hours
  Percent inhibition of larval motility: -6.8%
[1]; 15.625 µM, 48 hours
  Percent inhibition of larval motility: -11.1%
[1]; 15.625 µM, 72 hours
  Percent inhibition of larval motility: -11.7%
[1]; 15.625 µM, 96 hours
  Percent inhibition of larval motility: -3.4%
[1]; 15.625 µM, Initial
  Percent inhibition of larval motility: -7.4%
[1]; 31.25 µM, 1 hour
  Percent inhibition of larval motility: 6.3%
[1]; 31.25 µM, 4 hours
  Percent inhibition of larval motility: 1.6%
[1]; 31.25 µM, 24 hours
  Percent inhibition of larval motility: 0.6%
[1]; 31.25 µM, 48 hours
  Percent inhibition of larval motility: 11.9%
[1]; 31.25 µM, 72 hours
  Percent inhibition of larval motility: 3.1%
[1]; 31.25 µM, 96 hours
  Percent inhibition of larval motility: 5.5%
[1]; 31.25 µM, Initial
  Percent inhibition of larval motility: -21.7%
[1]; 62.5 µM, 4 hours
  Percent inhibition of larval motility: -11.1%
[1]; 62.5 µM, 24 hours
  Percent inhibition of larval motility: -12.6%
[1]; 62.5 µM, 48 hours
  Percent inhibition of larval motility: -2.3%
[1]; 125 µM, 1 hour
  Percent inhibition of larval motility: 33.8%
[1]; 125 µM, 4 hours
  Percent inhibition of larval motility: 3.0%
[1]; 125 µM, 24 hours
  Percent inhibition of larval motility: -6.2%
[1]; 125 µM, 48 hours
  Percent inhibition of larval motility: 18.4%
[1]; 125 µM, 72 hours
  Percent inhibition of larval motility: 14.0%
[1]; 125 µM, 96 hours
  Percent inhibition of larval motility: 26.6%
[1]; 125 µM, Initial
  Percent inhibition of larval motility: -12.3%
[1]; 250 µM, 1 hour
  Percent inhibition of larval motility: 38.9%
[1]; 250 µM, 24 hours
  Percent inhibition of larval motility: -12.4%
[1]; 250 µM, 48 hours
  Percent inhibition of larval motility: 28.6%
[1]; 250 µM, 96 hours
  Percent inhibition of larval motility: 0.9%
[1]; 250 µM, Initial
  Percent inhibition of larval motility: -11.5%
[1]; 500 µM, 1 hour
  Percent inhibition of larval motility: 33.9%
[1]; 500 µM, 4 hours
  Percent inhibition of larval motility: -2.0%
[1]; 500 µM, 24 hours
  Percent inhibition of larval motility: -0.5%
[1]; 500 µM, 48 hours
  Percent inhibition of larval motility: 22.2%
[1]; 500 µM, 72 hours
  Percent inhibition of larval motility: 12.1%
[1]; 500 µM, 96 hours
  Percent inhibition of larval motility: 18.5%
[1]; 500 µM, Initial
  Percent inhibition of larval motility: 5.8%
[2]; 62.5 µM, 1 hour
  Percent inhibition of larval motility: 13.5%
[2]; 62.5 µM, 72 hours
  Percent inhibition of larval motility: -9.5%
[2]; 62.5 µM, 96 hours
  Percent inhibition of larval motility: -1.6%
[2]; 62.5 µM, Initial
  Percent inhibition of larval motility: -25.7%
[2]; 250 µM, 4 hours
  Percent inhibition of larval motility: -5.6%
[2]; 250 µM, 72 hours
  Percent inhibition of larval motility: -1.2%

## CO[C@@H]1/C=C\O[C@]2(C)Oc3c(C)c(O)c4c(O)c(c(CN(C)C)c(O)c4c3C2=O)NC(=O)/C(C)=C\C=C[C@@H](C)[C@@H](O)[C@H](C)[C@@H](O)[C@H](C)[C@H](OC(C)=O)[C@@H]1C [NSC145612]
[1]; 15.625 µM, 1 hour
  Percent inhibition of larval motility: -10.3%
[1]; 15.625 µM, 4 hours
  Percent inhibition of larval motility: 7.3%
[1]; 15.625 µM, 24 hours
  Percent inhibition of larval motility: 7.0%
[1]; 15.625 µM, 48 hours
  Percent inhibition of larval motility: 8.1%
[1]; 15.625 µM, 72 hours
  Percent inhibition of larval motility: 23.0%
[1]; 15.625 µM, 96 hours
  Percent inhibition of larval motility: 17.4%
[1]; 15.625 µM, Initial
  Percent inhibition of larval motility: 20.3%
[1]; 31.25 µM, 1 hour
  Percent inhibition of larval motility: 20.1%
[1]; 31.25 µM, 4 hours
  Percent inhibition of larval motility: -11.2%
[1]; 31.25 µM, 24 hours
  Percent inhibition of larval motility: 27.2%
[1]; 31.25 µM, 48 hours
  Percent inhibition of larval motility: 21.9%
[1]; 31.25 µM, 72 hours
  Percent inhibition of larval motility: 43.2%
[1]; 31.25 µM, 96 hours
  Percent inhibition of larval motility: 3.9%
[1]; 31.25 µM, Initial
  Percent inhibition of larval motility: 21.0%
[1]; 62.5 µM, 4 hours
  Percent inhibition of larval motility: 32.0%
[1]; 62.5 µM, 24 hours
  Percent inhibition of larval motility: 10.4%
[1]; 62.5 µM, 48 hours
  Percent inhibition of larval motility: 14.1%
[1]; 125 µM, 1 hour
  Percent inhibition of larval motility: 31.7%
[1]; 125 µM, 4 hours
  Percent inhibition of larval motility: 34.3%
[1]; 125 µM, 24 hours
  Percent inhibition of larval motility: 15.7%
[1]; 125 µM, 48 hours
  Percent inhibition of larval motility: 8.1%
[1]; 125 µM, 72 hours
  Percent inhibition of larval motility: 3.0%
[1]; 125 µM, 96 hours
  Percent inhibition of larval motility: -6.9%
[1]; 125 µM, Initial
  Percent inhibition of larval motility: 21.6%
[1]; 250 µM, 1 hour
  Percent inhibition of larval motility: 13.0%
[1]; 250 µM, 24 hours
  Percent inhibition of larval motility: -8.6%
[1]; 250 µM, 48 hours
  Percent inhibition of larval motility: 13.8%
[1]; 250 µM, 96 hours
  Percent inhibition of larval motility: 12.8%
[1]; 250 µM, Initial
  Percent inhibition of larval motility: 25.9%
[1]; 500 µM, 1 hour
  Percent inhibition of larval motility: -19.2%
[1]; 500 µM, 4 hours
  Percent inhibition of larval motility: 0.4%
[1]; 500 µM, 24 hours
  Percent inhibition of larval motility: -12.0%
[1]; 500 µM, 48 hours
  Percent inhibition of larval motility: 14.1%
[1]; 500 µM, 72 hours
  Percent inhibition of larval motility: 9.6%
[1]; 500 µM, 96 hours
  Percent inhibition of larval motility: -5.1%
[1]; 500 µM, Initial
  Percent inhibition of larval motility: 9.3%
[2]; 62.5 µM, 1 hour
  Percent inhibition of larval motility: 16.7%
[2]; 62.5 µM, 72 hours
  Percent inhibition of larval motility: 18.3%
[2]; 62.5 µM, 96 hours
  Percent inhibition of larval motility: 3.8%
[2]; 62.5 µM, Initial
  Percent inhibition of larval motility: 10.1%
[2]; 250 µM, 4 hours
  Percent inhibition of larval motility: 47.0%
[2]; 250 µM, 72 hours
  Percent inhibition of larval motility: 9.2%
